Literature values, collected in patent US20180071214A1, “Pharmaceutical Oral Dose Formulation and Composition of Matter” (priority 2016, published 2018).

Experiments:
[1] = p-glycoprotein substrate

intestinal absorption [1]: negligible intestinal absorption
Structure (SMILES): CC[C@]1(O)C[C@@H]2CN(CCc3c([nH]c4ccccc34)[C@@](C(=O)OC)(c3cc4c(cc3OC)N(C)[C@H]3[C@@](O)(C(=O)OC)[C@H](OC(C)=O)[C@]5(CC)C=CCN6CC[C@]43[C@@H]65)C2)C1 [vinblastinee]
tissue effect after intravenous injection: severe tissue irritation and even damage
